What was measured:
Cytochrome P450 2A6 = molecular target: T1, Cytochrome P450 2A6 (Homo sapiens, UniProt P11509); conditions: bti-tn-5b1-4; note: in other assays of this panel Not Active means under 50% inhibition at 10 µM
T1 sequence (P11509 whole entry): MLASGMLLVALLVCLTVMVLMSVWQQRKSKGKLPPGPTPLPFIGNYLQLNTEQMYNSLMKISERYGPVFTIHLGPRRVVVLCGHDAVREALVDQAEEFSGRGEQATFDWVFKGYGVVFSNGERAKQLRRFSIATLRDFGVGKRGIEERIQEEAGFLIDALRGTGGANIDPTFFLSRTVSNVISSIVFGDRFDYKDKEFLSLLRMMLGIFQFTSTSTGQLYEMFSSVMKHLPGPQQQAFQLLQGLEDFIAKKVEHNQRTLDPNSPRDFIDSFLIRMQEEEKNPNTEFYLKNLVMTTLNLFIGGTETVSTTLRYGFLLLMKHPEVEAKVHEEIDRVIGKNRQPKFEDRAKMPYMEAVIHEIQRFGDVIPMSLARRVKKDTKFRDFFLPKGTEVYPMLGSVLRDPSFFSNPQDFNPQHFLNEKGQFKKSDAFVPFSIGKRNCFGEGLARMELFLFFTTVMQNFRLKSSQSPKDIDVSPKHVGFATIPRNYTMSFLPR

[1] = molecular target: T2, Alpha-2A adrenergic receptor (Homo sapiens, UniProt P08913); assay type: cell membranes, Sf9, Membrane; note: in other assays of this panel Not Active means under 50% inhibition at 10 µM
T2 sequence (P08913 whole entry): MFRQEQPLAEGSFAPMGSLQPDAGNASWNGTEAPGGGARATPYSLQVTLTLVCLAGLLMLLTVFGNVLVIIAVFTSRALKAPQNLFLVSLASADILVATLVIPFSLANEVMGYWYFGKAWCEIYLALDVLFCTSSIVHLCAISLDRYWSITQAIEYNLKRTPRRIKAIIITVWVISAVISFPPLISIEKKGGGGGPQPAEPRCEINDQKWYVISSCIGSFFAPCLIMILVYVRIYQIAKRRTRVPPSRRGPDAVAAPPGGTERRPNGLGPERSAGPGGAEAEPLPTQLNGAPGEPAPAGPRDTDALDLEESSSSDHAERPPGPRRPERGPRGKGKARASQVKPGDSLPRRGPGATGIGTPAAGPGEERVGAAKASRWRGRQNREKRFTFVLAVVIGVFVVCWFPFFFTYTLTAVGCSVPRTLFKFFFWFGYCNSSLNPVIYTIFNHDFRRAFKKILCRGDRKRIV

[2] = DRUGMATRIX: Imidazoline I2, Central radioligand binding (ligand: [3H] Idazoxan); assay type: cell membranes, Rattus norvegicus, Wistar, Cerebral cortex, Membrane; conditions: Not Active = under 50% inhibition at 10 µM
Glycine receptor = Glycine receptor (Rattus norvegicus, UniProt P22771+P24524+P07727+P20781); assay type: cell membranes, Wistar, Spinal cord, Membrane; note: in other assays of this panel Not Active means under 50% inhibition at 10 µM
[3] = DRUGMATRIX: Atrial Natriuretic Factor (ANF) radioligand binding (ligand: [125I] ANF (rat)); assay type: cell membranes, Cavia porcellus, Dunkin-Hartley, Adrenal gland, Membrane; conditions: Not Active = under 50% inhibition at 10 µM
[4] = molecular target: Beta-1 adrenergic receptor (Homo sapiens, UniProt P08588); experiment: DRUGMATRIX: Adrenergic beta1 radioligand binding (ligand: [125I] Cyanopindolol); assay type: cell membranes, CHO-K1, Membrane; conditions: Not Active = under 50% inhibition at 10 µM
Sequence of Beta-1 adrenergic receptor (P08588 whole entry): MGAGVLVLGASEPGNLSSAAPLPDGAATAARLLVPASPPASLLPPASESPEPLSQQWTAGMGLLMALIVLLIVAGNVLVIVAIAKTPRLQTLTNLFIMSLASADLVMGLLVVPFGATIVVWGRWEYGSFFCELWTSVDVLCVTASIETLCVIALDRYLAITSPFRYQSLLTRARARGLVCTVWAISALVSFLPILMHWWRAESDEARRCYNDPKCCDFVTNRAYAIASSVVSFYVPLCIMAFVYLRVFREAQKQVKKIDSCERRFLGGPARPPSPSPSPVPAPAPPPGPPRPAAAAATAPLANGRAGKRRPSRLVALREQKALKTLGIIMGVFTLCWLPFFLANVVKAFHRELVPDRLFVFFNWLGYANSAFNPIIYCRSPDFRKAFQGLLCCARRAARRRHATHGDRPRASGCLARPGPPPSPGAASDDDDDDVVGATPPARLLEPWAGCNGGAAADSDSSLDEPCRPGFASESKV

Structure (SMILES) | IC50 (Cytochrome P450 2A6) | Ki (Cytochrome P450 2A6) | IC50 ([1]; sf9) | IC50 [2] | Ki [2] | IC50 (Glycine receptor) | IC50 [3] | Ki [3] | IC50 ([4]; cho-k1) | IC50 ([4]; read-out: IC50) | Ki ([4]; read-out: Ki) | IC50 ([1]; read-out: IC50) | Ki ([1]; read-out: Ki) | IC50 ([2]; read-out: IC50) | Ki ([2]; read-out: Ki)
ClC(Cl)(Cl)Cl [CARBON TETRACHLORIDE] | Not Active | Not Active | Not Active | Not Active | Not Active | Not Active | Not Active | Not Active | Not Active | – | – | – | – | – | –
CO/N=C(\C(=O)N[C@@H]1C(=O)N2C(C(=O)O)=C(COC(C)=O)CS[C@H]12)c1csc(N)n1 [CEFOTAXIME] | Not Active | Not Active | Not Active | Not Active | Not Active | Not Active | Not Active | Not Active | Not Active | – | – | – | – | – | –
CNC1=Nc2ccc(Cl)cc2C(c2ccccc2)=[N+]([O-])C1 [CHLORDIAZEPOXIDE] | Not Active | Not Active | Not Active | Not Active | Not Active | Not Active | Not Active | Not Active | Not Active | – | – | – | – | – | –
Cc1cc(O)cc(C)c1Cl [CHLOROXYLENOL] | Not Active | Not Active | Not Active | Not Active | Not Active | Not Active | Not Active | Not Active | Not Active | – | – | – | – | – | –
CCCNC(=O)NS(=O)(=O)c1ccc(Cl)cc1 [CHLORPROPAMIDE] | Not Active | Not Active | Not Active | Not Active | Not Active | Not Active | Not Active | Not Active | Not Active | – | – | – | – | – | –
NS(=O)(=O)c1cc(C2(O)NC(=O)c3ccccc32)ccc1Cl (centres undefined) [CHLORTHALIDONE] | Not Active | Not Active | Not Active | Not Active | Not Active | Not Active | Not Active | Not Active | Not Active | – | – | – | – | – | –
CC(C)NCC(O)c1ccccc1Cl (centres undefined) [CLORPRENALINE] | Not Active | Not Active | Not Active | Not Active | Not Active | Not Active | Not Active | Not Active | – | 2590 nM | 1500 nM | – | – | – | –
CN1CCN(C(c2ccccc2)c2ccccc2)CC1 [CYCLIZINE] | Not Active | Not Active | – | – | – | Not Active | Not Active | Not Active | Not Active | – | – | 1550 nM | 582 nM | 3130 nM | 2090 nM
CN1C[C@@H]2C[C@H]1CN2c1cc2c(cc1F)c(=O)c(C(=O)O)cn2C1CC1 [DANOFLOXACIN] | Not Active | Not Active | Not Active | Not Active | Not Active | Not Active | Not Active | Not Active | Not Active | – | – | – | – | – | –
COc1cccc2c1C(=O)c1c(O)c3c(c(O)c1C2=O)C[C@@](O)(C(C)=O)C[C@@H]3O[C@H]1C[C@H](N)[C@H](O)[C@H](C)O1 [DAUNORUBICIN] | Not Active | Not Active | Not Active | Not Active | Not Active | Not Active | Not Active | Not Active | Not Active | – | – | – | – | – | –
O=C(O)c1cc(-c2ccc(F)cc2F)ccc1O [DIFLUNISAL] | Not Active | Not Active | Not Active | Not Active | Not Active | Not Active | Not Active | Not Active | Not Active | – | – | – | – | – | –
C[S+](C)[O-] [DIMETHYL SULFOXIDE] | Not Active | Not Active | Not Active | Not Active | Not Active | Not Active | Not Active | Not Active | Not Active | – | – | – | – | – | –
CC1=NN(c2ccccc2)C(=O)C1 [EDARAVONE] | Not Active | Not Active | Not Active | Not Active | Not Active | Not Active | Not Active | Not Active | Not Active | – | – | – | – | – | –
